Data: PubChem BioAssay AID328 (DTP/NCI, 2004)
Where “and” joins values, the source holds several entries; their conditions need not be identical. Equal values may be shown once. Toxic doses and inconclusive results are not listed. Positions of bridges follow the written chain, without caps; N, C: chain ends. Non-standard residues stand in square brackets, D forms with d. Residues, ends and D or L forms follow the SMILES beside them. NMeV = CN[CH](C(=O)O)C(C)C; Sar = CNCC(=O)O

System: BDF1 mice, P388 leukemia ip, median survival T/C
Assay: NCI In Vivo Anticancer Drug Screen. Data for tumor model P388 Leukemia (intraperitoneal) in B6D2F1 (BDF1) mice
Conditions: endpoint: median survival time, higher = longer survival
How it was run: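 Mice carrying the transplantable tumour receive compound or vehicle. Survival is followed in each arm, and the treated measure is divided by the vehicle measure.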

[1] = dose: 50.0 mg/kg/injection, schedule: Q01DX009 (ip), vehicle: saline with Tween-80
[2] = dose: 100.0 mg/kg/injection, schedule: Q01DX009 (ip), vehicle: saline with Tween-80
[3] = dose: 200.0 mg/kg/injection, schedule: Q01DX009 (ip), vehicle: saline with Tween-80
[4] = dose: 100.0 mg/kg/injection, schedule: Q04DX003 (ip), vehicle: saline with Tween-80
[5] = dose: 200.0 mg/kg/injection, schedule: Q04DX003 (ip), vehicle: saline with Tween-80
[6] = dose: 400.0 mg/kg/injection, schedule: Q04DX003 (ip), vehicle: saline with Tween-80
[7] = dose: 6.25 mg/kg/injection, schedule: Q01DX009 (ip), vehicle: saline with Tween-80
[8] = dose: 12.5 mg/kg/injection, schedule: Q01DX009 (ip), vehicle: saline with Tween-80
[9] = dose: 25.0 mg/kg/injection, schedule: Q01DX009 (ip), vehicle: saline with Tween-80

`COC(=O)Nc1nc2ccc(C(=O)c3cccs3)cc2[nH]1` was tested, and the T/C (dose: 20.0 mg/kg/injection, schedule: Q01DX009 (ip), vehicle: saline with Tween-80) was 117 % of control, the T/C (dose: 21.6 mg/kg/injection, schedule: Q04DX003 (ip), vehicle: other) was 167 % of control and the T/C (dose: 22.0 mg/kg/injection, schedule: Q04DX003 (ip), vehicle: other) was 153 % of control. The T/C (dose: 36.0 mg/kg/injection, schedule: Q04DX003 (ip), vehicle: other) was 199 % of control, the T/C (dose: 40.0 mg/kg/injection, schedule: Q01DX009 (ip), vehicle: saline with Tween-80) was 183 % of control and the T/C (dose: 50.0 mg/kg/injection, schedule: Q04DX003 (ip), vehicle: Klucel (hydroxypropylcellulose) (HPC)) was 163 % of control and 173 % of control. The T/C (dose: 60.0 mg/kg/injection, schedule: Q01DX009 (ip), vehicle: saline with Tween-80) was 225 % of control, the T/C (dose: 60.0 mg/kg/injection, schedule: Q04DX003 (ip), vehicle: other) was 274 % of control and the T/C (dose: 75.0 mg/kg/injection, schedule: Q04DX003 (ip), vehicle: Klucel (hydroxypropylcellulose) (HPC)) was 173 % of control and 175 % of control. For the same compound, the T/C (dose: 75.0 mg/kg/injection, schedule: Q04DX003 (ip), vehicle: saline with Tween-80) was 193 % of control and the T/C (dose: 100.0 mg/kg/injection, schedule: Q04DX003 (ip), vehicle: Klucel (hydroxypropylcellulose) (HPC)) was 165 % of control and 184 % of control.
For `CN(C)c1ccc(/C=C/c2ccnc3ccccc23)c(Cl)c1`, the T/C [1] was 102 % of control, the T/C [2] was 96 % of control and the T/C [3] was 88 % of control.
With `CCOC(=O)Nc1nc(Cl)c(Cl)nc1Cl` the T/C (dose: 0.78 mg/kg/injection, schedule: Q01DX009 (ip), vehicle: water) was 105 % of control, the T/C (dose: 1.56 mg/kg/injection, schedule: Q01DX009 (ip), vehicle: water) was 114 % of control and the T/C (dose: 3.12 mg/kg/injection, schedule: Q01DX009 (ip), vehicle: water) was 96 % of control. The T/C (dose: 6.25 mg/kg/injection, schedule: Q01DX009 (ip), vehicle: water) was 100 % of control and 110 % of control, the T/C (dose: 6.25 mg/kg/injection, schedule: Q04DX003 (ip), vehicle: water) was 90 % of control and the T/C (dose: 12.5 mg/kg/injection, schedule: Q01DX009 (ip), vehicle: water) was 91 % of control and 95 % of control. The T/C (dose: 12.5 mg/kg/injection, schedule: Q04DX003 (ip), vehicle: water) was 266 % of control and 102 % of control, the T/C (dose: 25.0 mg/kg/injection, schedule: Q01DX009 (ip), vehicle: water) was 100 % of control and the T/C (dose: 25.0 mg/kg/injection, schedule: Q04DX003 (ip), vehicle: water) was 269 % of control. For the same compound, the T/C (dose: 50.0 mg/kg/injection, schedule: Q01DX009 (ip), vehicle: water) was 87 % of control and 89 % of control, the T/C (dose: 50.0 mg/kg/injection, schedule: Q04DX003 (ip), vehicle: water) was 266 % of control and 116 % of control and the T/C (dose: 100.0 mg/kg/injection, schedule: Q01DX009 (ip), vehicle: water) was 89 % of control and 95 % of control. The T/C (dose: 200.0 mg/kg/injection, schedule: Q01DX009 (ip), vehicle: water) was 105 % of control and 108 % of control and the T/C (dose: 400.0 mg/kg/injection, schedule: Q01DX009 (ip), vehicle: water) was 118 % of control.
`Cc1cc2ccccc2oc1=O` was tested, and the T/C (dose: 25.0 mg/kg/injection, schedule: Q04DX003 (ip), vehicle: saline with Tween-80) was 100 % of control, the T/C (dose: 50.0 mg/kg/injection, schedule: Q04DX003 (ip), vehicle: saline with Tween-80) was 100 % of control and the T/C [4] was 100 % of control.
In the case of `CC(=O)c1cccc(OCc2ccccc2)c1`, the T/C (dose: 100.0 mg/kg/injection, schedule: Q01DX009 (ip), vehicle: other) is reported as 118 % of control, the T/C (dose: 100.0 mg/kg/injection, schedule: Q04DX003 (ip), vehicle: other) is reported as 100 % of control and the T/C (dose: 200.0 mg/kg/injection, schedule: Q01DX009 (ip), vehicle: other) is reported as 95 % of control. The T/C (dose: 200.0 mg/kg/injection, schedule: Q04DX003 (ip), vehicle: other) was 95 % of control, the T/C (dose: 400.0 mg/kg/injection, schedule: Q01DX009 (ip), vehicle: other) was 109 % of control and the T/C (dose: 400.0 mg/kg/injection, schedule: Q04DX003 (ip), vehicle: other) was 116 % of control.
`Cc1cc2nc(Oc3ccccc3)nc(=O)n2o1` was tested, and the T/C [1] was 100 % of control and 117 % of control, the T/C [2] was 106 % of control and 123 % of control and the T/C [3] was 112 % of control and 121 % of control.
In the case of `COc1cccc(CCNC(=O)CC#N)c1`, the T/C [2] is reported as 100 % of control, the T/C [4] is reported as 110 % of control and the T/C [3] is reported as 110 % of control. The T/C [5] was 100 % of control, the T/C (dose: 400.0 mg/kg/injection, schedule: Q01DX009 (ip), vehicle: saline with Tween-80) was 100 % of control and the T/C [6] was 100 % of control.
`CC(C)C1NC(=O)C(N)C(C)OC(=O)C(C(C)C)N(C)C(=O)CN(C)C(=O)C2CCCN2C1=O` (stereo unspecified) (tested in a mixture with another compound) (H-TVP[Sar][NMeV]; ester 1-C; configuration not given here) was tested, and the T/C (dose: 0.05 mg/kg/injection, schedule: Q01DX009 (ip), vehicle: saline + alcohol) was 201 % of control, the T/C (dose: 0.1 mg/kg/injection, schedule: Q01DX009 (ip), vehicle: saline + alcohol) was 260 % of control and the T/C (dose: 0.2 mg/kg/injection, schedule: Q01DX009 (ip), vehicle: saline + alcohol) was 531 % of control. The T/C (dose: 0.3 mg/kg/injection, schedule: Q04DX003 (ip), vehicle: saline + alcohol) was 239 % of control, the T/C (dose: 0.4 mg/kg/injection, schedule: Q01DX009 (ip), vehicle: saline + alcohol) was 96 % of control and the T/C (dose: 0.6 mg/kg/injection, schedule: Q04DX003 (ip), vehicle: saline + alcohol) was 281 % of control and 187 % of control. The T/C (dose: 1.2 mg/kg/injection, schedule: Q04DX003 (ip), vehicle: saline + alcohol) was 107 % of control.
In the case of `O=C(CCN1CCCCC1)c1ccc(C(F)(F)F)cc1`, the T/C (dose: 0.39 mg/kg/injection, schedule: Q01DX009 (ip), vehicle: saline) is reported as 100 % of control and 116 % of control, the T/C (dose: 0.78 mg/kg/injection, schedule: Q01DX009 (ip), vehicle: saline) is reported as 102 % of control and 116 % of control and the T/C (dose: 1.56 mg/kg/injection, schedule: Q01DX009 (ip), vehicle: saline) is reported as 100 % of control. The T/C [7] was 99 % of control.
For `[NH-]C(CCC(N)=O)C(=O)O.[NH-]C(CCC(N)=O)C(=O)O.[Zn+2]` (stereo unspecified), the T/C [8] was 91 % of control, the T/C [9] was 108 % of control and the T/C [1] was 121 % of control.
For `CC/C(=C(\CC)c1ccc(OC)cc1)c1ccc(OC)cc1`, the T/C [1] was 90 % of control, the T/C [2] was 90 % of control and the T/C [4] was 86 % of control. The T/C [3] was 90 % of control, the T/C [5] was 90 % of control and the T/C [6] was 95 % of control.
In the case of `CCOC(=O)C1Cc2c([nH]c(=O)[nH]c2=O)OC1c1cccc(Cl)c1` (stereo unspecified), the T/C (dose: 3.12 mg/kg/injection, schedule: Q01DX009 (ip), vehicle: saline with Tween-80) is reported as 98 % of control, the T/C [7] is reported as 96 % of control and 102 % of control and the T/C [8] is reported as 93 % of control. The T/C [9] was 99 % of control and 107 % of control.
In the case of `CC(=O)n1cc(CCC(=O)O)c2ccccc21`, the T/C (dose: 100.0 mg/kg/injection, schedule: Q04DX002 (ip), vehicle: saline with Tween-80) is reported as 106 % of control, the T/C (dose: 200.0 mg/kg/injection, schedule: Q04DX002 (ip), vehicle: saline with Tween-80) is reported as 101 % of control and the T/C (dose: 400.0 mg/kg/injection, schedule: Q04DX002 (ip), vehicle: saline with Tween-80) is reported as 102 % of control.
`O=C1CSC(c2ccccc2)N1c1nccs1` (stereo unspecified) was tested, and the T/C [1] was 98 % of control, the T/C [2] was 91 % of control and the T/C [3] was 104 % of control.
`CCOC(=O)C1CC1C(=O)O` (stereo unspecified) was tested, and the T/C (dose: 100.0 mg/kg/injection, schedule: Q04DX003 (ip), vehicle: saline) was 103 % of control and the T/C (dose: 200.0 mg/kg/injection, schedule: Q04DX003 (ip), vehicle: saline) was 114 % of control.
`O=C(/C=C/c1ccc(O)cc1)c1ccccc1` was tested, and the T/C [4] was 118 % of control, the T/C [5] was 168 % of control and the T/C [6] was 113 % of control.
For `C1CN1P1(N2CC2)=NP(N2CC2)(N2CC2)=NP(N2CC2)(N2CC2)=N1`, the T/C (dose: 0.61 mg/kg/injection, schedule: Q01DX009 (ip), vehicle: saline) was 109 % of control, the T/C (dose: 0.92 mg/kg/injection, schedule: Q01DX009 (ip), vehicle: saline) was 118 % of control and the T/C (dose: 2.1 mg/kg/injection, schedule: Q01DX009 (ip), vehicle: saline) was 154 % of control. For the same compound, the T/C (dose: 3.3 mg/kg/injection, schedule: Q01DX009 (ip), vehicle: saline) was 180 % of control and 203 % of control and 204 % of control, the T/C (dose: 5.0 mg/kg/injection, schedule: Q01DX009 (ip), vehicle: saline) was 190 % of control and 218 % of control and the T/C (dose: 7.5 mg/kg/injection, schedule: Q01DX009 (ip), vehicle: saline) was 265 % of control and 272 % of control and 153 % of control.
For `O=[N+]([O-])c1ccc(/C=N\Nc2ccc([N+](=O)[O-])cn2)cc1`, the T/C [8] was 110 % of control, the T/C [9] was 120 % of control and the T/C [1] was 120 % of control. For the same compound, the T/C [2] was 90 % of control, the T/C (dose: 100.0 mg/kg/injection, schedule: Q04DX003 (ip), vehicle: saline sonified) was 100 % of control and the T/C [3] was 90 % of control. The T/C (dose: 200.0 mg/kg/injection, schedule: Q04DX003 (ip), vehicle: saline sonified) was 110 % of control and the T/C (dose: 400.0 mg/kg/injection, schedule: Q04DX003 (ip), vehicle: saline sonified) was 120 % of control.
In the case of `CCSSC(=Nc1ccccc1)OCC(C)C`, the T/C (dose: 50.0 mg/kg/injection, schedule: Q01DX009 (ip), vehicle: other) is reported as 119 % of control.
